Activity calls are given as the source filed them. No cut-off for these calls is given here.
Assays:
HEK293 [1] = test: Effect of compound on HEK293 cells assessed as expression of mRNA in NFkappaB induced CXCL8 gene in presence of pretreatment with TNFalpha for 2 hr by qPCR analysis; assay type: functional, cell-based; conditions: Homo sapiens
[2] = biological target: Cyclin-C/Cyclin-dependent kinase 19 (Homo sapiens, UniProt Q9BWU1); test: Binding affinity to recombinant human CDK19/cyclinC assessed as dissociation constant by TR FRET based assay; assay type: protein-complex assay
Sequence of Cyclin-C/Cyclin-dependent kinase 19 (Q9BWU1 whole entry): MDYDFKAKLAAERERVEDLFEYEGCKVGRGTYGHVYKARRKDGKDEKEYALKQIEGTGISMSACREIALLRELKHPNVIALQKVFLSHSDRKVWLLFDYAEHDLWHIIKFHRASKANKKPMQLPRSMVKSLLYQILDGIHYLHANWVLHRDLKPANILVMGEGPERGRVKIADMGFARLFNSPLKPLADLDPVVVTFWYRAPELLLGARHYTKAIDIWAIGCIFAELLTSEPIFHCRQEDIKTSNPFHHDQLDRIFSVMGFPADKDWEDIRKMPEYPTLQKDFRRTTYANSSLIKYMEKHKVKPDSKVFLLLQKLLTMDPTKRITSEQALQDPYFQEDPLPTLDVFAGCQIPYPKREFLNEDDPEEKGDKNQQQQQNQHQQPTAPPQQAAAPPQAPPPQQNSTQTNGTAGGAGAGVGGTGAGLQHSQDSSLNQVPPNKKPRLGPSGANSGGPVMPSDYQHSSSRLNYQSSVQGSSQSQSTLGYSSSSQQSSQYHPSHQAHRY
Sequence of Cyclin-C/Cyclin-dependent kinase 19 (P24863 whole entry, further chain): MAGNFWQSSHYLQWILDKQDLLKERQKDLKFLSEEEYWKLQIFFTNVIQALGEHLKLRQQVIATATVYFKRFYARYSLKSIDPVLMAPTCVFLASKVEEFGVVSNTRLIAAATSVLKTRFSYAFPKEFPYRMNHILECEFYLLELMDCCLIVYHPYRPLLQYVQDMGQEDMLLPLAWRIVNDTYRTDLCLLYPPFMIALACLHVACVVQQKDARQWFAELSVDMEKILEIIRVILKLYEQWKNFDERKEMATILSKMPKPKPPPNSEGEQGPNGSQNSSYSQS

CT26 = test: Downregulation of CCL12 gene expression in BALB/c mouse xenografted with mouse CT26 cells at 100 mg/kg, po 2 to 12 hrs […]; assay type: functional, organism-based; conditions: time 2-12 hrs, TDE = time-dependent effect
[3] = Downregulation of CDK8/19 in HEK293 cells assessed as mRNA expression level in KCTD12 gene at 1 uM for 3 hrs pretreatment and measured after 24 hr post wash-off by qt-PCR analysis; assay type: functional; conditions: Homo sapiens, time 27 hrs
HEK293 [4] = test: Effect of compound on HEK293 cells assessed as mRNA expression in CDK8/19 dependent MYC gene in presence of pretreatment with TNFalpha for 2 hr by qPCR analysis; assay type: functional, cell-based; conditions: Homo sapiens
[5] = Cmax in plasma of BALB/c mouse xenografted with mouse CT26 cells at 100 mg/kg, po by LC-MS/MS analysis; assay type: ADME, organism-based; set-up: route oral, dose 100 mg/kg
[6] = Plasma C0 in BALB/c mouse xenografted with mouse CT26 cells at 2.5 mg/kg, iv by LC-MS/MS analysis; assay type: ADME, organism-based
HEK293 [7] = test: Inhibition of TNFalpha induced CDK8/19 dependent NF kappa B activity CDK8/19 in double knockout HEK293 cell for 3 hrs by qt-PCR analysis; assay type: functional, cell-based; conditions: Homo sapiens
[8] = biological target: Cyclin-dependent kinase 8 (Homo sapiens) (UniProt P49336); test: Inhibition of human CDK8 at 2 uM by competition binding assay relative to control; values are per cent of control
Sequence of Cyclin-dependent kinase 8 (Homo sapiens) (P49336 whole entry): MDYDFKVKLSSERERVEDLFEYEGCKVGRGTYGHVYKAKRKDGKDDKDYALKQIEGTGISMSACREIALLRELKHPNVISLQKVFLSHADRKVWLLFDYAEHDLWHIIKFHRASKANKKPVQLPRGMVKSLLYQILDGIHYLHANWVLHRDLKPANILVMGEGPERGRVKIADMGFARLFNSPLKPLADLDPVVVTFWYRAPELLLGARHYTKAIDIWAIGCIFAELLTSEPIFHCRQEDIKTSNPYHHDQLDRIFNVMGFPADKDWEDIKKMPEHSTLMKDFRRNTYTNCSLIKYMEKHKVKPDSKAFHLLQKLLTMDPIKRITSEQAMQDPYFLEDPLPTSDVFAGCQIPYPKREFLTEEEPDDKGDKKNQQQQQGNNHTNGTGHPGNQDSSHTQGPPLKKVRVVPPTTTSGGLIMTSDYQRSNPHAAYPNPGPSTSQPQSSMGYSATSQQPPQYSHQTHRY

HEK293 [9] = test: Inhibition of TNFalpha induced CDK8/19 dependent NF kappa B activity in Wild type HEK293 cell for 3 hrs by qt-PCR analysis; assay type: functional, cell-based; conditions: Homo sapiens
[10] = biological target: T1, CDK8/Cyclin C (Homo sapiens) (UniProt P49336+P24863); test: Binding affinity to kinase tracer 236 binding to His tagged recombinant human CDK8/cyclinC assessed as rate constant (koff) by TR FRET based assay; assay type: protein-complex assay
[11] = Toxicity in BALB/c mouse bearing CT26 tumor model assessed as change in body weight at 100 mg/kg, po qd for 7 days by LC-MS/MS analysis; assay type: organism-based; conditions: in vivo, 168 h, time 7 day
[12] = Inhibition of NF kappa B dependent CDK8/CDK19 in HEK293 cell incubated for 3 hrs in presence of TNF-alpha by Spectra max microtitre plate reader; assay type: cell-based; conditions: Homo sapiens, HEK293, 3 h
[13] = biological target: T2, Mitogen-activated protein kinase kinase kinase kinase 2 (Homo sapiens) (UniProt Q12851); test: Inhibition of human MAP4K2 at 2 uM by competition binding assay relative to control; conditions: values are per cent of control
T2 sequence (whole entry): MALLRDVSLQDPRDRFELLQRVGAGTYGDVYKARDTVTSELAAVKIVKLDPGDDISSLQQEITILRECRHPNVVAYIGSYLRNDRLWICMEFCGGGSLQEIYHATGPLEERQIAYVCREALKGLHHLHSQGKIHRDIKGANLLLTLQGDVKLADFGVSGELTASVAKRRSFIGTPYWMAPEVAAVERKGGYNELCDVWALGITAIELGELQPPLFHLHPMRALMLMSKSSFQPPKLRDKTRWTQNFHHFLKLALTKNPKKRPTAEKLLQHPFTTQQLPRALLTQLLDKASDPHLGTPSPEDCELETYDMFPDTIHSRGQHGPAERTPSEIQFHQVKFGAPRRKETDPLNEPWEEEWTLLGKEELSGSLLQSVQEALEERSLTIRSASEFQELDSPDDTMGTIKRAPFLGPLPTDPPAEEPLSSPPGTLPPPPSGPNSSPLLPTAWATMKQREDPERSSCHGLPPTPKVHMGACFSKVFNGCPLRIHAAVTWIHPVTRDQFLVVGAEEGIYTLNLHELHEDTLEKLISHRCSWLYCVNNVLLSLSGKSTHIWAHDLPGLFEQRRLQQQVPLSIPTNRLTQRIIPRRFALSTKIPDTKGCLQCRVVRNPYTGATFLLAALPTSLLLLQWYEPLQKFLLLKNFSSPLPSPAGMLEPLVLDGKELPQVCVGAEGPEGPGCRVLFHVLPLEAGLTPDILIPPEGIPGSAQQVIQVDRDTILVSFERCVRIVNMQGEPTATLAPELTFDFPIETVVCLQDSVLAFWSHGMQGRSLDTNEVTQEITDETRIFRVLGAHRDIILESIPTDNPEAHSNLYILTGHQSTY

[14] = Half life in plasma of BALB/c mouse xenografted with mouse CT26 cells at 100 mg/kg, po by LC-MS/MS analysis; assay type: ADME, organism-based
[15] = Drug accumulation in lung of BALB/c mouse bearing CT26 tumor model at 100 mg/kg, po for 7 days by LC-MS/MS analysis; assay type: ADME, organism-based; conditions: in vivo, 168 h, time 7 day
[16] = Tmax in tumor of BALB/c mouse xenografted with mouse CT26 cells at 2.5 mg/kg, iv by LC-MS/MS analysis; assay type: ADME, organism-based, Neoplasm
[17] = biological target: Cyclin-C/Cyclin-dependent kinase 19 (Homo sapiens) (UniProt Q9BWU1+P24863); test: Binding affinity to recombinant human CDK19/cyclinC assessed as mean residence time by TR FRET based assay; assay type: protein-complex assay
[18] = AUC(0-24h) in plasma of BALB/c mouse xenografted with mouse CT26 cells at 100 mg/kg, po by LC-MS/MS analysis; assay type: ADME, organism-based; set-up: time < 24 hr, route oral, dose 100 mg/kg; conditions: in vivo
[19] = Oral bioavailability in tumor of BALB/c mouse xenografted with mouse CT26 cells at 100 mg/kg by LC-MS/MS; assay type: ADME, organism-based, Neoplasm
[20] = biological target: Cyclin-dependent kinase 19 (Homo sapiens) (UniProt Q9BWU1); test: Inhibition of human CDK19 at 2 uM by competition binding assay relative to control; conditions: values are per cent of control
Sequence of Cyclin-dependent kinase 19 (Homo sapiens) (Q9BWU1 whole entry): as the sequence (Q9BWU1 whole entry) above

[21] = Drug accumulation in liver of BALB/c mouse bearing CT26 tumor model at 100 mg/kg, po for 7 days by LC-MS/MS analysis; assay type: ADME, organism-based; conditions: in vivo, 168 h, time 7 day
[22] = Oral bioavailability in plasma of BALB/c mouse xenografted with mouse CT26 cells at 100 mg/kg by LC-MS/MS; assay type: ADME, organism-based
[23] = AUC (0-24hrs) in tumor of BALB/c mouse xenografted with mouse CT26 cells at 100 mg/kg, po by LC-MS/MS analysis; assay type: ADME, organism-based, Neoplasm; set-up: time < 24 hr, route oral, dose 100 mg/kg
[24] = biological target: T1, CDK8/Cyclin C (Homo sapiens); test: Binding affinity to kinase tracer 236 binding to His tagged recombinant human CDK8/cyclinC assessed as mean residence time by TR FRET based assay; assay type: protein-complex assay
MV4-11 = test: Antitumor activity against human luciferase expressing MV4-11 AML cells xenografted in NOD SCID NSG mouse assessed as supression of tumor growth at 40 mg/kg, po bid for 4 weeks by bioluminescence imaging method; assay type: functional, organism-based
[25] = Tmax in tumor of BALB/c mouse xenografted with mouse CT26 cells at 100 mg/kg, po by LC-MS/MS analysis; assay type: ADME, organism-based, Neoplasm

- Kd [2]: 2.9 nM
- Cmax [5]: 144 ng/mL
- C0 [6]: 503 ng/mL
- residual activity [8]: 1%
- K [10]: 0.00122 s⁻¹
- IC50 [12]: 56 nM
- residual binding, % of control [13]: 29%
- half-life [14]: 212 min
- Drug uptake [15]: Active
- Tmax [16]: 34.8 min
- MRT [17]: 4.25 min
- AUC [18]: 2182 ng·h/mL
- bioavailability [19]: 34.6%
- residual binding, % of control [20]: 13%
- Drug uptake [21]: Active
- bioavailability [22]: 16.5%
- AUC(0-t) at 24 h [23]: 88600 ng·h/mL
- MRT [24]: 13.6 min
- Tmax [25]: 12 h
Compound: CN1CCN(C(=O)c2ccc3cc(CCNc4ccnc5ccc(C#N)cc45)ccc3c2)CC1
- Activity (HEK293 [1]): Active
- Activity (CT26): Tde
- inhibition at 1 µM [3]: 30%
- Activity (HEK293 [4]): Active
- Activity (HEK293 [7]): inactive
- Activity (HEK293 [9]): Active
- Activity [11]: Non-Toxic
- Activity (MV4-11): Active

Source: ChEMBL document CHEMBL5046270, “A Selective and Orally Bioavailable Quinoline-6-Carbonitrile-Based Inhibitor of CDK8/19 Mediator Kinase with Tumor-Enriched Pharmacokinetics” (J Med Chem, 2022)
